Source: US20060069132A1, “Azolecarboxamide herbicides” (priority 2004, published 2006)

What was measured:
[1] = test system: wild oat; assay: Test B postemergence herbicide test; format: in vivo, Avena fatua; settings: postemergence, visual rating, scale 0 (no effect) to 100 (complete control)
Procedure, shortened: (§1)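 After treating 2-leaf paddy plants or 2–18 cm postemergence plants (1 to 4 leaves) with formulated chemical, researchers kept them in a greenhouse for 13–15 days. Effects were judged visually versus controls: 0 indicates none, 100 total control.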

[2] = test system: lambsquarters; assay: Test B pre-/postemergence herbicide test; format: in vivo, Chenopodium album; settings: for Plant response rating, Lambsquarters: preemergence; for Lambsquarters plant response rating: postemergence, visual rating, scale 0 (no effect) to 100 (complete control)
Procedure, shortened: (§2)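 Plants compared with untreated controls 13–15 days post-treatment and given a visual 0–100 injury score. Applications: preemergence to seeds; postemergence at 1- to 4-leaf (2–18 cm); paddy species flooded, 2-leaf stage. Vehicle non-phytotoxic, surfactant included.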

[3] = test system: pigweed; assay: Test B pre-/postemergence herbicide test; format: in vivo, Amaranthus retroflexus; settings: for Plant response rating, Pigweed: preemergence; for Pigweed plant response rating: postemergence, visual rating, scale 0 (no effect) to 100 (complete control)
Procedure, shortened: as §2

[4] = test system: morningglory; assay: Test B pre-/postemergence herbicide test; format: in vivo, Ipomoea coccinea; settings: for Plant response rating, Morningglory: preemergence; for Morningglory plant response rating: postemergence, visual rating, scale 0 (no effect) to 100 (complete control)
Procedure, shortened: (§3)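 Visual rating, 0 (no effect) to 100 (complete control), versus untreated controls after 13–15 d in greenhouse. Pre- and postemergence applications (postemergence plants 2–18 cm, 1–4 leaves); flooded paddy arm at 2-leaf stage. Compounds in non-phytotoxic solvent plus surfactant.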

[5] = test system: cocklebur; assay: Test B pre-/postemergence herbicide test; format: in vivo, Xanthium strumarium; settings: for Plant response rating, Cocklebur: preemergence; for Cocklebur plant response rating: postemergence, visual rating, scale 0 (no effect) to 100 (complete control)
Procedure, shortened: as §3

[6] = test system: large crabgrass; assay: Test B pre-/postemergence herbicide test; format: in vivo, Digitaria sanguinalis; settings: for Plant response rating, Crabgrass, Large: preemergence; for Crabgrass, Large plant response rating: postemergence, visual rating, scale 0 (no effect) to 100 (complete control)
Procedure, shortened: as §2

[7] = test system: rice; assay: Test B flooded paddy test; format: in vivo, Oryza sativa; settings: 1000 g ai/ha, visual rating, scale 0 to 100 (0 no effect, 100 complete control), 13 to 15 days
Procedure, shortened: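 Formulated test chemicals went onto postemergence plants measuring 2 to 18 cm, at one to four leaves. For the paddy assay, species had reached two leaves. Scoring took place 13–15 days later by eye, relative to untreated plants, using 0 for no effect up to 100 for full control.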

[8] = test system: wheat; assay: Test B postemergence herbicide test; format: in vivo, Triticum aestivum; design: key to Wheat plant response rating: 0 = no effect, 100 = complete control; settings: postemergence, visual rating, scale 0 (no effect) to 100 (complete control)
Procedure, shortened: as §1

[9] = test system: small flower umbrella sedge; assay: Test B flooded paddy test; format: in vivo, Cyperus difformis; settings: 1000 g ai/ha, visual rating, scale 0 to 100 (0 no effect, 100 complete control), 13 to 15 days
Procedure, shortened: (§4)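 Visual ratings, 0 (no effect) to 100 (complete control), made versus controls after 13–15 d greenhouse. Paddy plants treated at 2-leaf stage; postemergence plants at 1- to 4-leaf stage, 2–18 cm tall.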

[10] = test system: giant foxtail; assay: Test B pre-/postemergence herbicide test; format: in vivo, Setaria faberi; settings: for Plant response rating, Foxtail, Giant: preemergence; for Foxtail, Giant plant response rating: postemergence, visual rating, scale 0 (no effect) to 100 (complete control)
Procedure, shortened: as §2

[11] = test system: ducksalad; assay: Test B flooded paddy test; format: in vivo, Heteranthera limosa; settings: 1000 g ai/ha, visual rating, scale 0 to 100 (0 no effect, 100 complete control), 13 to 15 days
Procedure, shortened: as §4

[12] = test system: corn; assay: Test B pre-/postemergence herbicide test; format: in vivo, Zea mays; settings: for Plant response rating, Corn: preemergence; for Corn plant response rating: postemergence, visual rating, scale 0 (no effect) to 100 (complete control)
Procedure, shortened: as §2

[13] = test system: Surinam grass; assay: Test B pre-/postemergence herbicide test; format: in vivo, Urochloa decumbens; settings: for Plant response rating, Surinam Grass: preemergence; for Surinam Grass plant response rating: postemergence, visual rating, scale 0 (no effect) to 100 (complete control)
Procedure, shortened: as §2

[14] = test system: blackgrass; assay: Test B postemergence herbicide test; format: in vivo, Alopecurus myosuroides; settings: postemergence, visual rating, scale 0 (no effect) to 100 (complete control)
Procedure, shortened: as §4

[15] = test system: barnyardgrass; assay: Test B flooded paddy test; format: in vivo, Echinochloa crus-galli; settings: 1000 g ai/ha, visual rating, scale 0 to 100 (0 no effect, 100 complete control), 13 to 15 days
Procedure, shortened: as §4

[16] = test system: barnyardgrass; assay: Test B pre-/postemergence herbicide test; format: in vivo, Echinochloa crus-galli; settings: for Plant response rating, Barnyardgrass: preemergence; for Barnyardgrass plant response rating: postemergence, visual rating, scale 0 (no effect) to 100 (complete control)
Procedure, shortened: as §3

[17] = 500 g ai/ha, visual rating 0-100, 0 no effect, 100 complete control
[18] = 125 g ai/ha, 0 to 100 scale, 0 is no effect, 100 is complete control

In the case of `C=Cn1nc(C(C)(C)C)cc1C(=O)Nc1cccc(C(C)=O)c1` [Compound 127], the “Oat, Wild plant response rating” value ([1]; 125 g ai/ha) is reported as 10, the “Oat, Wild plant response rating” value ([1]; 500 g ai/ha) is reported as 10 and the “Plant response rating, Lambsquarters” value [2, 17] is reported as 70. For the same compound, the “Lambsquarters plant response rating” value ([2]; 125 g ai/ha) was 70, the “Lambsquarters plant response rating” value ([2]; 500 g ai/ha) was 80 and the “Plant response rating, Lambsquarters” value [2, 18] was 0. The “Plant response rating, Pigweed” value [3, 17] was 70, the “Pigweed plant response rating” value ([3]; 125 g ai/ha) was 30 and the “Pigweed plant response rating” value ([3]; 500 g ai/ha) was 60. The “Plant response rating, Pigweed” value [3, 18] was 40, the “Plant response rating, Morningglory” value [4, 18] was 0 and the “Plant response rating, Cocklebur” value [5, 17] was 20. For the same compound, the “Cocklebur plant response rating” value ([5]; 125 g ai/ha) was 10, the “Cocklebur plant response rating” value ([5]; 500 g ai/ha) was 80 and the “Plant response rating, Cocklebur” value [5, 18] was 10. For the same compound, the “Plant response rating, Crabgrass, Large” value [6, 17] was 100, the “Crabgrass, Large plant response rating” value ([6]; 125 g ai/ha) was 20 and the “Crabgrass, Large plant response rating” value ([6]; 500 g ai/ha) was 30. The “Plant response rating, Crabgrass, Large” value [6, 18] was 90, the “Rice plant response rating” value [7] was 50 and the “Wheat plant response rating” value ([8]; 125 g ai/ha) was 0. The “Wheat plant response rating” value ([8]; 500 g ai/ha) was 10, the “Sedge, Umbrella plant response rating” value [9] was 100 and the “Plant response rating, Foxtail, Giant” value [10, 17] was 70. For the same compound, the “Foxtail, Giant plant response rating” value ([10]; 125 g ai/ha) was 20, the “Foxtail, Giant plant response rating” value ([10]; 500 g ai/ha) was 30 and the “Plant response rating, Foxtail, Giant” value [10, 18] was 30. For the same compound, the “Ducksalad plant response rating” value [11] was 90, the “Plant response rating, Corn” value [12, 17] was 0 and the “Plant response rating, Corn” value [12, 18] was 0. The “Plant response rating, Surinam Grass” value [13, 17] was 60, the “Surinam Grass plant response rating” value ([13]; 125 g ai/ha) was 10 and the “Surinam Grass plant response rating” value ([13]; 500 g ai/ha) was 10. For the same compound, the “Plant response rating, Surinam Grass” value [13, 18] was 50, the “Blackgrass plant response rating” value ([14]; 125 g ai/ha) was 10 and the “Blackgrass plant response rating” value ([14]; 500 g ai/ha) was 10. The “Barnyardgrass plant response rating” value [15] was 50, the “Plant response rating, Barnyardgrass” value [16, 17] was 70 and the “Barnyardgrass plant response rating” value ([16]; 125 g ai/ha) was 10. For the same compound, the “Barnyardgrass plant response rating” value ([16]; 500 g ai/ha) was 20 and the “Plant response rating, Barnyardgrass” value [16, 18] was 20.
In the case of `CCn1nc(C(C)(C)C)cc1C(=O)Nc1cccc(SC(F)(F)F)c1` [Compound 130], the “Oat, Wild plant response rating” value ([1]; 125 g ai/ha) is reported as 40, the “Oat, Wild plant response rating” value ([1]; 500 g ai/ha) is reported as 60 and the “Plant response rating, Lambsquarters” value [2, 17] is reported as 70. For the same compound, the “Lambsquarters plant response rating” value ([2]; 125 g ai/ha) was 90, the “Lambsquarters plant response rating” value ([2]; 500 g ai/ha) was 100 and the “Plant response rating, Lambsquarters” value [2, 18] was 0. For the same compound, the “Plant response rating, Pigweed” value [3, 17] was 100, the “Pigweed plant response rating” value ([3]; 125 g ai/ha) was 100 and the “Pigweed plant response rating” value ([3]; 500 g ai/ha) was 100. For the same compound, the “Plant response rating, Pigweed” value [3, 18] was 20, the “Plant response rating, Morningglory” value [4, 17] was 10 and the “Morningglory plant response rating” value ([4]; 125 g ai/ha) was 100. For the same compound, the “Morningglory plant response rating” value ([4]; 500 g ai/ha) was 100, the “Plant response rating, Morningglory” value [4, 18] was 10 and the “Plant response rating, Cocklebur” value [5, 17] was 0. For the same compound, the “Cocklebur plant response rating” value ([5]; 125 g ai/ha) was 100, the “Cocklebur plant response rating” value ([5]; 500 g ai/ha) was 100 and the “Plant response rating, Cocklebur” value [5, 18] was 0. The “Plant response rating, Crabgrass, Large” value [6, 17] was 100, the “Crabgrass, Large plant response rating” value ([6]; 125 g ai/ha) was 70 and the “Crabgrass, Large plant response rating” value ([6]; 500 g ai/ha) was 90. For the same compound, the “Plant response rating, Crabgrass, Large” value [6, 18] was 90, the “Rice plant response rating” value [7] was 0 and the “Wheat plant response rating” value ([8]; 125 g ai/ha) was 20. For the same compound, the “Wheat plant response rating” value ([8]; 500 g ai/ha) was 40, the “Sedge, Umbrella plant response rating” value [9] was 0 and the “Plant response rating, Foxtail, Giant” value [10, 17] was 70. The “Foxtail, Giant plant response rating” value ([10]; 125 g ai/ha) was 20, the “Foxtail, Giant plant response rating” value ([10]; 500 g ai/ha) was 60 and the “Plant response rating, Foxtail, Giant” value [10, 18] was 20. For the same compound, the “Ducksalad plant response rating” value [11] was 10, the “Plant response rating, Corn” value [12, 17] was 20 and the “Corn plant response rating” value ([12]; 125 g ai/ha) was 20. For the same compound, the “Corn plant response rating” value ([12]; 500 g ai/ha) was 40, the “Plant response rating, Corn” value [12, 18] was 10 and the “Plant response rating, Surinam Grass” value [13, 17] was 80. The “Surinam Grass plant response rating” value ([13]; 125 g ai/ha) was 50, the “Surinam Grass plant response rating” value ([13]; 500 g ai/ha) was 90 and the “Plant response rating, Surinam Grass” value [13, 18] was 60. The “Blackgrass plant response rating” value ([14]; 125 g ai/ha) was 20, the “Blackgrass plant response rating” value ([14]; 500 g ai/ha) was 60 and the “Barnyardgrass plant response rating” value [15] was 40. For the same compound, the “Plant response rating, Barnyardgrass” value [16, 17] was 70, the “Barnyardgrass plant response rating” value ([16]; 125 g ai/ha) was 50 and the “Barnyardgrass plant response rating” value ([16]; 500 g ai/ha) was 80. The “Plant response rating, Barnyardgrass” value [16, 18] was 10.
